From patent US12398124B2, “Pyrrolobenzodiazepine dimer prodrug and ligand-linker conjugate compound of the same” (priority 2017, dated 2025)
Read-outs that look alike come from different tables or passages of the source. Where a SMILES comes first, the peptide text is derived from it. [ ]: non-standard residue; d: D form. Dolaproine = CO[C@@H]([C@@H]1CCCN1)[C@@H](C)C(=O)O; Dil = CC[C@H](C)[C@H](NC)[C@@H](CC(=O)O)OC; NMeV = CN[C@H](C(=O)O)C(C)C

Tests used:
Test in all cases: Cytotoxicity in vitro (cell proliferation inhibition, SRB dye)
Format in all cases: cell-based, human
JIMT-1 (HER2 positive) = settings: JIMT-1 breast cancer cells
Procedure: (§1) The cell proliferation inhibitory activity of the drug and ADCs presented in the following Table 2 on cancer cell lines was measured. As the cancer cell lines, commercially available human breast cancer cell lines MCF-7 (HER2 negative to normal), SK-BR3 (HER2 positive), and JIMT-1 (HER2 positive) were used. MMAF-OMe was used as the drug and the ADCs in Table 1 were used as the ADC. Each of the cancer cell lines was seeded in a 96-well plate by from 5,000 to 13,000 per well for the 72 hour treatment group and from 1,500 to 3,000 per well for the 168 hour treatment group, incubated for 24 hours, and then treated with antibodies and ADCs at a concentration of from 0.0051 to 33.33 nM or from 0.0015 to 10.0 nM (three times serial dilutions) and drugs at a concentration of from 0.023 to 50 nM (three times serial dilutions). After 72/168 hours, the number of living cells was quantified using SRB (Sulforhodamine B) dye.

[1] = system: MCF-7 (HER2 negative to normal); settings: MCF7 breast cancer cells
Procedure: as §1

SK-BR3 (HER2 positive) = settings: SK-BR3 breast cancer cells
Procedure: as §1

With CC[C@H](C)[C@@H]([C@@H](CC(=O)N1CCC[C@H]1[C@H](OC)[C@@H](C)C(=O)N[C@@H](Cc1ccccc1)C(=O)OC)OC)N(C)C(=O)[C@@H](NC(=O)[C@@H](NC)C(C)C)C(C)C [MMAF-OMe] (H-[NMeV]V[Dil][Dolaproine]F-OMe) the CC50 (JIMT-1 (HER2 positive); 72 hr treatment, read-out: CC50 (nM) JIMT-1 72 hr) was 0.14 nM, the CC50 (JIMT-1 (HER2 positive); 168 hr treatment, read-out: CC50 (nM) JIMT-1 168 hr) was 0.06 nM and the CC50 ([1]; 72 hr treatment, read-out: CC50 (nM) MCF7 72 hr) was 0.84 nM. It also gave a CC50 ([1]; 168 hr treatment, read-out: CC50 (nM) MCF7 168 hr) of 0.19 nM, a CC50 (SK-BR3 (HER2 positive); 72 hr treatment, read-out: CC50 (nM) SK-BR3 72 hr) of 0.14 nM and a CC50 (SK-BR3 (HER2 positive); 168 hr treatment, read-out: CC50 (nM) SK-BR3 168 hr) of 0.06 nM.
